Measurements: patent US20260097115A1 (priority 2023, published 2026)

What was measured:
Assay type in all cases: cell-based, human
[1] = system: HLA-II complexes (HLA-DR, HLA-DP, HLA-DQ) of HEK293T/ATC cells
[2] = system: HLA-II complexes (HLA-DR, HLA-DP, HLA-DQ) of A549/ATC cells
[3] = system: HLA-II complexes of A549/ATC and HEK293T/ATC cells

Sequence: AALQIPFAMQMAYRENGIG [S:892-910]
- Unique HEK293T peptides in segment [1]: 11
- Unique A549 peptides in segment [2]: 0
- Unique peptides in segment [3]: 11

Sequence: ALHFLLFFRALPKS [ORF3a.iORF1: 28-41]
- Detection as HLA-II peptide by LC-MS/MS [1]: observed in the same fraction (fxn 3) in two biological replicates
- Unique HEK293T peptides in segment [1]: 1
- Unique A549 peptides in segment [2]: 0
- Unique peptides in segment [3]: 1

Sequence: ATREASVYAWNRKRISN [S:344-360]
- Unique HEK293T peptides in segment [1]: 3
- Unique A549 peptides in segment [2]: 0
- Unique peptides in segment [3]: 3

Sequence: CSNLLLQYGSFCTQLNRALTGIAVEQDKNTQE [S:749-780]
- Unique HEK293T peptides in segment [1]: 10
- Unique A549 peptides in segment [2]: 0
- Unique peptides in segment [3]: 10

Sequence: DGSEDNQTTTIQTIVE [nsp3: 174-189]
- Unique HEK293T peptides in segment [1]: 1
- Unique A549 peptides in segment [2]: 0
- Unique peptides in segment [3]: 1

Sequence: DSFVIRGDEVRQIAPG [S:398-413]
- Unique HEK293T peptides in segment [1]: 1
- Unique A549 peptides in segment [2]: 0
- Unique peptides in segment [3]: 1

Sequence: EPQIITTDNTFVSGN [S:1111-1125]
- Unique HEK293T peptides in segment [1]: 0
- Unique A549 peptides in segment [2]: 1
- Unique peptides in segment [3]: 1

Sequence: IAQFAPSASAFFG [N: 304-316]
- Unique HEK293T peptides in segment [1]: 0
- Unique A549 peptides in segment [2]: 1
- Unique peptides in segment [3]: 1

Sequence: ICASYQTQTNSPRRA [S:670-684]
- Unique HEK293T peptides in segment [1]: 1
- Unique A549 peptides in segment [2]: 0
- Unique peptides in segment [3]: 1

Sequence: INITRFQTLLALHRSYL [S: 233-249]
- Unique HEK293T peptides in segment [1]: 1
- Unique A549 peptides in segment [2]: 0
- Unique peptides in segment [3]: 1

Sequence: KKKADETQALPQRQKKQQTVTLLPAADLDDESKQLQQSMSSADSTQA [N: 373-419]
- Unique HEK293T peptides in segment [1]: 69
- Unique A549 peptides in segment [2]: 5
- Unique peptides in segment [3]: 69

Sequence: MAGNGGDAALALLLLDRLNQLESKMSGKGQQQQGQTVT [N: 210-247]
- Unique HEK293T peptides in segment [1]: 0
- Unique A549 peptides in segment [2]: 21
- Unique peptides in segment [3]: 21

Sequence: MDGSIIQFPNTYLEGSVR [nsp4: 194-211]
- Unique HEK293T peptides in segment [1]: 5
- Unique A549 peptides in segment [2]: 0
- Unique peptides in segment [3]: 5

Sequence: MDLFMRIFTIGTVTLKQGEIKDATPSDF [ORF3a: 1-28]
- Unique HEK293T peptides in segment [1]: 4
- Unique A549 peptides in segment [2]: 1
- Unique peptides in segment [3]: 4

Sequence: MDPKISEMHPALRLVDPQIQLAVTRMENA [ORF9b: 1-29]
- Unique HEK293T peptides in segment [1]: 8
- Unique A549 peptides in segment [2]: 0
- Unique peptides in segment [3]: 8

Sequence: NVPLHGTILTRPLLESELVIGAVILRGHLRIAGHHLGRCDIKDLPKEITVA [M: 121-171]
- Unique HEK293T peptides in segment [1]: 18
- Unique A549 peptides in segment [2]: 16
- Unique peptides in segment [3]: 34

Sequence: RIGMEVTPSGTWLTYTGAIKLDDKDPNEKDQVILLNKHIDAYKTEPP [N: 319-365]
- Unique HEK293T peptides in segment [1]: 17
- Unique A549 peptides in segment [2]: 36
- Unique peptides in segment [3]: 44

Sequence: SDNGPQNQRNAPRITE [N: 2-17]
- Unique HEK293T peptides in segment [1]: 0
- Unique A549 peptides in segment [2]: 1
- Unique peptides in segment [3]: 1

Sequence: SPDAVTAYNGYLTSSSK [nsp3: 661-677]
- Unique HEK293T peptides in segment [1]: 1
- Unique A549 peptides in segment [2]: 0
- Unique peptides in segment [3]: 1

Sequence: SVASQSIIAYTMSLGAEN [S:686-703]
- Unique HEK293T peptides in segment [1]: 3
- Unique A549 peptides in segment [2]: 0
- Unique peptides in segment [3]: 3

Sequence: TDHSSSSDNIALLVQ [M: 208-222]
- Unique HEK293T peptides in segment [1]: 2
- Unique A549 peptides in segment [2]: 2
- Unique peptides in segment [3]: 2

Sequence: TEIYQAGSTPCNGVEG [S:470-485]
- Unique HEK293T peptides in segment [1]: 2
- Unique A549 peptides in segment [2]: 0
- Unique peptides in segment [3]: 2

Sequence: TGPEAGLPYGANKDG [N: 115-129]
- Unique HEK293T peptides in segment [1]: 0
- Unique A549 peptides in segment [2]: 1
- Unique peptides in segment [3]: 1

Sequence: TPTWRVYSTGSNVFQTRAG [S:630-648]
- Unique HEK293T peptides in segment [1]: 2
- Unique A549 peptides in segment [2]: 1
- Unique peptides in segment [3]: 3

Sequence: TQLPPAYTNSFTRGVYYPDKVERSSVLHSTQDLFLPFFS [S: 22-60]
- Unique HEK293T peptides in segment [1]: 0
- Unique A549 peptides in segment [2]: 13
- Unique peptides in segment [3]: 13

Sequence: TQQLIRAAEIRASANLA [S:1009-1025]
- Unique HEK293T peptides in segment [1]: 14
- Unique A549 peptides in segment [2]: 0
- Unique peptides in segment [3]: 14

Sequence: TVEKGIYQTSNERVQPTES [S:307-325]
- Unique HEK293T peptides in segment [1]: 3
- Unique A549 peptides in segment [2]: 3
- Unique peptides in segment [3]: 4

Sequence: VGPKVYPIILRLGSPLS [ORF9b: 37-53]
- Unique HEK293T peptides in segment [1]: 2
- Unique A549 peptides in segment [2]: 0
- Unique peptides in segment [3]: 2

Sequence: YIINLIIKNLSKS [ORF6: 31-43]
- Unique HEK293T peptides in segment [1]: 0
- Unique A549 peptides in segment [2]: 1
- Unique peptides in segment [3]: 1
